The assay has as its system EGFR (Human), P00533 [Assessment of Proliferation in EGFR DelE746_A750 Mutant Expressing HCC827 Cells].
EGFR (Human), P00533 [Assessment of Proliferation in EGFR DelE746_A750 Mutant Expressing HCC827 Cells], sequence (P00533 whole entry, looked up, stated change not applied): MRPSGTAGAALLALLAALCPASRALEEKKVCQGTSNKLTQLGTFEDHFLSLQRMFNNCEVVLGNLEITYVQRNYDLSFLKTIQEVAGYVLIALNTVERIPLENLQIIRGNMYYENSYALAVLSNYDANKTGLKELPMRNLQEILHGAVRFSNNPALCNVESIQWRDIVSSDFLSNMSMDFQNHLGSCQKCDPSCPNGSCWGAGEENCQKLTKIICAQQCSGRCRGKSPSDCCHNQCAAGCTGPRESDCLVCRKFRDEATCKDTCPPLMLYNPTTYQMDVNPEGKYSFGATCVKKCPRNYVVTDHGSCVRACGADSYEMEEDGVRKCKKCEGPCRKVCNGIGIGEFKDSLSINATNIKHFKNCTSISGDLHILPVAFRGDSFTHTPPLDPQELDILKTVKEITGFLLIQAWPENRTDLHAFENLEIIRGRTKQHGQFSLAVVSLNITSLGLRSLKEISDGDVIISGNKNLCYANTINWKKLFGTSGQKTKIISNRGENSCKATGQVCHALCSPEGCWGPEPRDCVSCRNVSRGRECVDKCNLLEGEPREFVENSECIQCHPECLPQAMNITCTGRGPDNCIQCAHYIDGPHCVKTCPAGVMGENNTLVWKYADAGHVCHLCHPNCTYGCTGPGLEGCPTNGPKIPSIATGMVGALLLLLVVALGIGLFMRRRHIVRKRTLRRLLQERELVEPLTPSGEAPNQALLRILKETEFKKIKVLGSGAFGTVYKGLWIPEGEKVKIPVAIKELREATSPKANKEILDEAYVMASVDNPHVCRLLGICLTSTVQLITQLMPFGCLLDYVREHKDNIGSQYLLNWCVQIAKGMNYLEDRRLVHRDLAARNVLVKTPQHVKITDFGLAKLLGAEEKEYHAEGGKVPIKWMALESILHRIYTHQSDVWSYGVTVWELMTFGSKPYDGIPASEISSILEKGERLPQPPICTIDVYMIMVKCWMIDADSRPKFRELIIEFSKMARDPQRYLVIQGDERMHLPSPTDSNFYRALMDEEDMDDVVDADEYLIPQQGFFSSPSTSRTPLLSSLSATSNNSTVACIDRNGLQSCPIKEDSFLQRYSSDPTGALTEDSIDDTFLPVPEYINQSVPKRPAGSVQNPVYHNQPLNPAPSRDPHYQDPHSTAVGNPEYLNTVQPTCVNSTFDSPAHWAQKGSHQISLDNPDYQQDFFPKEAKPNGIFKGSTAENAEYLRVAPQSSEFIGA
Consider `C=CC(=O)Nc1cccc(Oc2nc(Nc3ccc(S(C)(=O)=O)cc3)nc3ccsc23)c1`, for which the concentration for 50% growth inhibition (GI50) – broadly, the concentration giving 50% growth inhibition – was 50 to 100 nM.
As for `C=CC(=O)Nc1cccc(Nc2nc(Nc3ccc(N4CCN(CC)CC4)cc3)nc3ccsc23)c1`, the figure is not above 50 nM; as for `C=CC(=O)Nc1cccc(Oc2nc(Nc3ccc(CCS(C)(=O)=O)cc3)nc3ccsc23)c1`, 50 to 100 nM; as for `C=CC(=O)Nc1cccc(Oc2nc(Nc3ccc(-n4ccnc4)cc3)nc3ccsc23)c1`, 50 to 100 nM.
On to `C=CC(=O)Nc1cccc(Oc2nc(Nc3ccc(N4CCS(=O)(=O)CC4)cc3)nc3ccsc23)c1`, for which the GI50 was not above 50 nM.
For `C=CC(=O)Nc1cccc(Oc2nc(Nc3ccc(N4CCN(C)CC4)cc3)nc3ccsc23)c1` the value was not above 50 nM.
As for `C=CC(=O)Nc1cccc(Oc2nc(Nc3ccc(CN4CCC4)cc3)nc3ccsc23)c1`, the figure is not above 50 nM.
As for `C=CC(=O)Nc1cccc(Oc2nc(Nc3ccc(C4CCN(C)CC4)cc3OC)nc3ccsc23)c1`, the figure is 50 to 100 nM; as for `C=CC(=O)Nc1cccc(Oc2nc(Nc3ccc4c(c3)CCCC(=O)N4C)nc3ccsc23)c1`, 50 to 100 nM; as for `C=CC(=O)Nc1cccc(Oc2nc(Nc3ccc(N4CCC(C(=O)N(C)C)CC4)cc3)nc3ccsc23)c1`, not above 50 nM.
For the compound `C=CC(=O)Nc1cccc(Oc2nc(Nc3ccc(C(=O)N4CCN(S(=O)(=O)CC)CC4)c(Cl)c3)nc3ccsc23)c1`, the GI50 was not above 50 nM.
For `C=CC(=O)Nc1cccc(Oc2nc(Nc3ccc(CN4CCCC4)cc3)nc3ccsc23)c1` the value was not above 50 nM; for `C=CC(=O)Nc1cccc(Oc2nc(Nc3ccc4c(c3)OCCO4)nc3ccsc23)c1`, 50 to 100 nM.
In turn, `C=CC(=O)Nc1cccc(Oc2nc(Nc3ccc(C4(N)CC4)cc3)nc3ccsc23)c1` had a GI50 not above 50 nM.
For `C=CC(=O)Nc1cccc(Oc2nc(Nc3ccc(N4CCN(S(=O)(=O)CC)CC4)c(F)c3)nc3ccsc23)c1` the value was 50 to 100 nM.
As for `C=CC(=O)Nc1cccc(Oc2nc(Nc3ccc(C(=O)NCCN4CCCC4)cc3OC)nc3ccsc23)c1`, the figure is not above 50 nM; as for `C=CC(=O)Nc1cccc(Oc2nc(Nc3ccc(CCN(C)C)cc3)nc3ccsc23)c1`, not above 50 nM.
The compound `C=CC(=O)Nc1cccc(Oc2nc(Nc3ccc(N4CCN(CCOC)CC4)cc3)nc3ccsc23)c1` returned a GI50 not above 50 nM.
In turn, `C=CC(=O)Nc1cccc(Oc2nc(Nc3ccc(N4CCNCC4)c(Cl)c3)nc3ccsc23)c1` showed a GI50 not above 50 nM.
For `C=CC(=O)Nc1cccc(Oc2nc(Nc3ccc(CN4CCC(N(C)C)CC4)cc3)nc3ccsc23)c1` the value was not above 50 nM; for `C=CC(=O)Nc1cccc(Nc2nc(Nc3ccc(CN(C)C)cc3)nc3ccsc23)c1`, not above 50 nM.
For `C=CC(=O)Nc1cccc(Oc2nc(Nc3ccc(CCN4CCCCC4)cc3)nc3ccsc23)c1` the value was not above 50 nM.
As for `C=CC(=O)Nc1cccc(Oc2nc(Nc3ccc(C(=O)NC4CCN(C)CC4)c(OC)c3)nc3ccsc23)c1`, the figure is not above 50 nM; as for `C=CC(=O)Nc1cccc(Oc2nc(Nc3ccc(OCCN4CCN(C)CC4)c(F)c3)nc3ccsc23)c1`, not above 50 nM; as for `C=CC(=O)Nc1cccc(Oc2nc(Nc3ccc(N4CCN(CCO)CC4)cn3)nc3ccsc23)c1`, not above 50 nM.
In turn, `C=CC(=O)Nc1cccc(Oc2nc(Nc3ccc(N4CCSCC4)cc3)nc3ccsc23)c1` gave a concentration for 50% growth inhibition (GI50) of 100 to 1000 nM.
For `C=CC(=O)Nc1cccc(Oc2nc(Nc3ccc(CN(CC)CC)cc3)nc3ccsc23)c1`, the GI50 was not above 50 nM.
Regarding `C=CC(=O)Nc1cccc(Oc2nc(Nc3ccc(C(=O)N(C)C)c(Cl)c3)nc3ccsc23)c1`, the concentration for 50% growth inhibition (GI50) fell in the range of 50 to 100 nM.
`C=CC(=O)Nc1cccc(Oc2nc(Nc3ccc(NC4CCN(C(C)C)CC4)c(F)c3)nc3ccsc23)c1` displayed a 50% growth inhibitory concentration (GI50) not above 50 nM.
`C=CC(=O)Nc1cccc(Oc2nc(Nc3ccc(NC(=O)N4CCN(C)CC4)cc3)nc3ccsc23)c1` showed a GI50 of 50 to 100 nM.
Take `C=CC(=O)Nc1cccc(Oc2nc(Nc3ccc(S(=O)(=O)NCCN(C)C)cc3)nc3ccsc23)c1`: the concentration for 50% growth inhibition (GI50) was not above 50 nM.
As for `C=CC(=O)Nc1cccc(Oc2nc(Nc3ccc(N4CCN(CC(F)(F)F)CC4)cc3)nc3ccsc23)c1`, the figure is 50 to 100 nM; as for `C=CC(=O)Nc1cccc(Oc2nc(Nc3ccc4c(c3)CCN4C(=O)CN(C)C)nc3ccsc23)c1`, not above 50 nM; as for `C=CC(=O)Nc1cccc(Oc2nc(Nc3ccc(OCCN4CCOCC4)cc3)nc3ccsc23)c1`, not above 50 nM.
As for `C=CC(=O)Nc1cccc(Oc2nc(Nc3ccc(N4CCN(C(=O)CN(C)C)CC4)c(F)c3)nc3ccsc23)c1`, the figure is not above 50 nM.
For `C=CC(=O)Nc1cccc(Oc2nc(Nc3ccc(CN4CCN(C)CC4)cc3)nc3ccsc23)c1` the value was not above 50 nM.
In turn, `C=CC(=O)Nc1cccc(Sc2nc(Nc3ccc(N4CCN(C)CC4)cc3)nc3ccsc23)c1` had a 50% growth inhibitory concentration (GI50) not above 50 nM.
For `C=CC(=O)Nc1cccc(Oc2nc(Nc3ccc(N4CCN(C)CC4)c(OC)c3)nc3ccoc23)c1` the value was not above 50 nM.
The compound `C=CC(=O)Nc1cccc(Oc2nc(Nc3ccc(C(C)N4CCN(CC)CC4)cc3)nc3ccsc23)c1` (stereo unspecified) came in with a GI50 not above 50 nM.
As for `C=CC(=O)Nc1ccc(F)c(Nc2nc(Nc3ccc(N4CCN(C)CC4)c(F)c3)nc3ccsc23)c1`, the figure is not above 50 nM.
As for `C=CC(=O)Nc1cccc(Oc2nc(Nc3ccc(CN4CCN(C5CCN(C)CC5)CC4)c(Cl)c3)nc3ccsc23)c1`, the figure is 50 to 100 nM.
As for `C=CC(=O)Nc1cccc(Oc2nc(Nc3ccc(OC4CCN(C)CC4)c(F)c3)nc3ccsc23)c1`, the figure is not above 50 nM; as for `C=CC(=O)Nc1cccc(Oc2nc(Nc3ccc4c(c3)NCCCO4)nc3ccsc23)c1`, not above 50 nM.
Consider `C=CC(=O)Nc1cccc(Oc2nc(Nc3ccc(C(=O)N4CCN(CC)CC4)c(Cl)c3)nc3ccsc23)c1`, for which the GI50 was not above 50 nM.
As for `C=CC(=O)Nc1cccc(Oc2nc(Nc3ccc(N4CC[S+]([O-])CC4)cc3)nc3ccsc23)c1`, the figure is not above 50 nM; as for `C=CC(=O)Nc1cccc(Oc2nc(Nc3ccc(CN4CCCCC4)cc3)nc3ccsc23)c1`, not above 50 nM.
As for `C=CC(=O)Nc1ccc(F)c(Nc2nc(Nc3ccc(N4CCN(C)CC4)cc3)nc3ccsc23)c1`, the figure is not above 50 nM.
`C=CC(=O)Nc1cccc(Oc2nc(Nc3ccc(N4CCN(S(C)(=O)=O)CC4)c(F)c3)nc3ccsc23)c1` had a GI50 not above 50 nM.
As for `C=CC(=O)Nc1cccc(Oc2nc(Nc3ccc(CN(C)C)cc3C)nc3ccsc23)c1`, the figure is not above 50 nM; as for `C=CC(=O)Nc1cccc(Oc2nc(Nc3ccc(C4CCCN(C)C4)cc3)nc3ccsc23)c1` (stereo unspecified), not above 50 nM; as for `C=CC(=O)Nc1cccc(Oc2nc(Nc3ccc(NC4CCN(C(C)C)CC4)nc3)nc3ccsc23)c1`, 50 to 100 nM.
As for `C=CC(=O)Nc1cccc(Oc2nc(Nc3ccc(CN4CCN(CC)CC4)cc3)nc3ccsc23)c1`, the figure is not above 50 nM.
On to `C=CC(=O)Nc1cccc(Oc2nc(Nc3ccc(NC4CCN(C)CC4)c(F)c3)nc3ccoc23)c1`, for which the GI50 was not above 50 nM.
For `C=CC(=O)Nc1cccc(Oc2nc(Nc3ccc(N4CCN(CC)CC4)cc3OC)nc3ccsc23)c1` the value was not above 50 nM; for `C=CC(=O)Nc1cccc(Oc2nc(Nc3ccc(N4CCN(C)CC4)cn3)nc3ccsc23)c1`, not above 50 nM.
`C=CC(=O)Nc1cccc(Oc2nc(Nc3ccc(N4CCN(C)CC4)nc3)nc3ccsc23)c1` returned a 50% growth inhibitory concentration (GI50) not above 50 nM.
For `C=CC(=O)Nc1cccc(Oc2nc(Nc3ccc(N4CC(C)N(C)C(C)C4)cc3)nc3ccsc23)c1` (stereo unspecified), the 50% growth inhibitory concentration (GI50) is not above 50 nM.
For `C=CC(=O)Nc1cccc(Nc2nc(Nc3ccc(C4CCCN(C)C4)cc3)nc3ccsc23)c1` (stereo unspecified) the value was not above 50 nM; for `C=CC(=O)Nc1cccc(Oc2nc(Nc3ccc(N4CCC(N5CCCC5)CC4)c(F)c3)nc3ccsc23)c1`, not above 50 nM.
For `C=CC(=O)Nc1cccc(Oc2nc(Nc3ccc(N4CCN(C)CC4)c(Cl)c3)nc3ccsc23)c1` the value was not above 50 nM; for `C=CC(=O)Nc1cccc(Oc2nc(Nc3ccc(CC(=O)NC4CCN(C)CC4)cc3)nc3ccsc23)c1`, 100 to 1000 nM.

Source of the values: the Kinase Knowledgebase extract (Sharma et al. 2016).
